test system: IL-12 production in human PBMC or THP-1 cells; test: In vitro inhibition of IL-12 production in stimulated human PBMC or THP-1 cells (ELISA); assay type: cell-based; conditions: representative in vitro IC50 data
Source text: The biological activities of a heterocyclic compound can be evaluated by a number of cell-based assays. One of such assays can be conducted using cells from human peripheral blood mononuclear cells (PBMC) or human monocytic cell line (THP-1). The cells are stimulated with a combination of human interferon-γ (IFNγ) and lipopolysaccharide or a combination of IFNγ and Staphylococcus aureus Cowan I in the presence of a test compound. The level of inhibition of IL-12 production can be measured by determining the amount of p70 by using a sandwich ELISA assay with anti-human IL-12 antibodies. IC50 of the test compound can then be determined. Specifically, PBMC or THP-1 cells are incubated with the test compound. Cell viability was assessed using the bioreduction of MTS [3-(4,5-dimethylthiazol-2-yl)-5-(3-carboxymethoxyphenyl)-2-(4-sulfophenyl)-2H-tetrazolium] (Promega, Madison, Wis.).
Reagents. Staphylococcus aureus Cowan I (SAC) was obtained from Calbiochem (La Jolla, Calif.), and lipopolysaccharide (LPS, Serratia marscencens) was obtained from Sigma (St. Louis, Mo.). Human and mouse recombinant IFNγ were purchased from Boehringer Mannheim (Mannheim, Germany) and Pharmingen (San Diego, Calif.), respectively.
Human In Vitro Assay. Human PBMC were isolated by centrifugation using Ficoll-Paque (Pharmacia Biotech, Uppsala, Sweden) and prepared in RPMI medium supplemented with 10% fetal calf serum (FCS), 100 U/mL penicillin, and 100 μg/mL streptomycin. PBMC were plated in wells of a 96-well plate at a concentration of 5×10^5 cells/well, and primed by adding IFNγ (30 U/mL) for 22 h and stimulated by adding LPS (1 μg/mL), or by adding IFNγ (100 U/mL) and then stimulated by adding SAC (0.01%). A test pyrimidine compound was dissolved in DMSO, and added to wells of the 96-well plate. The final DMSO concentration was adjusted to 0.25% in all cultures, including the compound-free control. Human THP-1 cells were plated in wells, primed by adding IFNγ (100 U/mL) for 22 h and stimulated by adding SAC (0.025%) in the presence of different concentrations of the pyrimidine compound. Cell-free supernatants were taken 18 h later for measurement of cytokines. Cell viability was assessed using the bioreduction of MTS. Cell survival was estimated by determining the ratio of the absorbance in compound-treated groups versus compound-free control.
The supernatant was assayed for the amount of IL-12p40, IL-12p70, or IL-10 by using a sandwich ELISA with anti-human antibodies, i.e., a Human IL-12 p40 ELISA kit from R&D Systems (Berkeley, Calif.), and a Human IL-12 p70 or IL-10 ELISA kit from Endogen (Cambridge, Mass.). Assays were based on the manufacturer's instructions.
The biological activities of pyrimidine compounds were tested on human PBMC or THP-1 cells. Unexpectedly, some of the test compounds have IC50 values as low as <1 nM.

Q: How did the IC50 turn out when Cc1cccc(/C=N/Nc2cc(N3CCOCC3)nc(CCSc3nnc(-c4ccncc4)[nH]3)n2)c1 [Compound 25, N-(3-Methyl-benzylidene)-N′-{6-morpholin-4-yl-2-[2-(5-pyridin-4-yl-4H-[1,2,4]triazol-3-ylsulfanyl)-ethyl]-pyrimidin-4-yl}-hydrazine] was run?
A: < 25 nM

Q: Which IC50 does the source give for Cc1cccc(/C=N/Nc2cc(N3CCOCC3)nc(CCC(C)(C)OC(=O)Nc3cccc(C)c3)n2)c1 [Compound 26, m-Tolyl-carbamic acid 1,1-dimethyl-3-{4-[N′-(3-methyl-benzylidene)-hydrazino]-6-morpholin-4-yl-pyrimidin-2-yl}-propyl ester] here?
A: 25 to 50 nM

Q: How did the IC50 turn out when Cc1cccc(/C=N/Nc2cc(N3CCOCC3)nc(CCC(C)(C)OC(=O)Nc3cccc(C(F)(F)F)c3)n2)c1 [Compound 27, (3-Trifluoromethyl-phenyl)-carbamic acid 1,1-dimethyl-3-{4-[N′-(3-methyl-benzylidene)-hydrazino]-6-morpholin-4-yl-pyrimidin-2-yl}-propyl ester] was run?
A: > 50 nM

Q: Which IC50 does the source give for Cc1cccc(/C=N/Nc2cc(N3CCOCC3)nc(OCC(C)(C)OC(=O)Nc3cccc(C(F)(F)F)c3)n2)c1 [Compound 28, (3-Trifluoromethyl-phenyl)-carbamic acid 1,1-dimethyl-2-{4-[N′-(3-methyl-benzylidene)-hydrazino]-6-morpholin-4-yl-pyrimidin-2-yloxy}-ethyl ester] here?
A: < 25 nM

Q: How did the IC50 turn out when Cc1cccc(/C=N/Nc2cc(N3CCOCC3)nc(CC(C)(C)OC(=O)Nc3cccc(C(F)(F)F)c3)n2)c1 [Compound 29, (3-Trifluoromethyl-phenyl)-carbamic acid 1,1-dimethyl-2-{4-[N′-(3-methyl-benzylidene)-hydrazino]-6-morpholin-4-yl-pyrimidin-2-yl}-ethyl ester] was run?
A: > 50 nM

Q: With Cc1cccc(/C=N/Nc2cc(N3CCOCC3)nc(CC(C)(C)OC(=O)Nc3ccc(C(F)(F)F)cc3)n2)c1 [Compound 30, (4-Trifluoromethyl-phenyl)-carbamic acid 1,1-dimethyl-2-{4-[N′-(3-methyl-benzylidene)-hydrazino]-6-morpholin-4-yl-pyrimidin-2-yl}-ethyl ester] as the compound, how does the IC50 read?
A: < 25 nM

Q: Which IC50 does the source give for Cc1cccc(/C=N/Nc2cc(N3CCOCC3)nc(CCNS(=O)(=O)N(C)C)n2)c1 [Compound 54, 1,1-Dimethyl-3-(2-{4-[N′-(3-methyl-benzylidene)-hydrazino]-6-morpholin-4-yl-pyrimidin-2-yl}-ethyl)-sulfamide] here?
A: < 25 nM

Q: With Cc1cccc(/C=N/Nc2cc(N3CCOCC3)nc(OCCOC(=O)Nc3cccnc3)n2)c1 [Compound 106, Pyridin-3-yl-carbamic acid 2-{4-[N′-(3-methyl-benzylidene)-hydrazino]-6-morpholin-4-yl-pyrimidin-2-yloxy}-ethyl ester] as the compound, how does the IC50 read?
A: < 25 nM
